Measured values reported in patent US20050107466A1, “Method of treating or reducing suicidal thoughts with escitalopram” (H. Lundbeck A/S, priority 2003, published 2005).

Legend:
[1] = randomised, double-blind, parallel-group clinical trial, 8 weeks; HAM-D and MADRS items of suicidal thoughts; type: in vivo; conditions: escitalopram daily dose of 10-20 mg compared with 40 mg citalopram; persons with major depression
Procedure: In brief, a clinical trial was designed as a randomised, double-blind, parallel-group trial comprising two different fixed escitalopram doses (10 mg and 20 mg per day) for eight weeks. A placebo-arm was included, as was an active comparator arm in terms of 40 mg citalopram per day. The persons fulfilled the following criteria: (a) DSM-IV (i) major depression with symptoms present for a minimum of 4 weeks; (b) minimum total score of 22 on the 10-item MADRS (Montgomery SA, Åsberg M., A new depression scale designed to be sensitive to change., Br. J. Psychiatry 1979, 134, 382-389) and a score of 2 or more on the HAM-D item (depressed mood) (Hamilton, M., Br. J. Soc. Clin. Psychol 1967, 6, 278-296). Persons who still fulfilled the MADRS and HAM-D criteria after 1-week, single-blind placebo lead-in were randomised to the double-blind treatment. Throughout the 8-week double-blind treatment period, persons assigned to placebo or escitalopram 10 mg daily received no adjustment of dosage. Persons in the escitalopram 20 mg daily group and in the citalopram group were titrated to their final dose of after 1 week of treatment at half of their assigned dose. […] Persons were evaluated at baseline (the end of the 1-week placebo lead-in) and after 1, 2, 4, 6, and 8 weeks. […]

[2] = analysis of data from four clinical studies; suicidal thoughts (MADRS item 10); type: in vivo, patients

## CN(C)CCC[C@@]1(c2ccc(F)cc2)OCc2cc(C#N)ccc21 [escitalopram]
[1]
  reducing suicidal thoughts: more effective
[2]; after one week of treatment with 10-20 mg escitalopram compared to placebo
  overall effect on suicidal thoughts or suicidal ideation: significantly pronounced already after one week
[2]; after one week of treatment, compared to patients treated with citalopram or placebo
  percentage of patients experiencing an increase in suicidal thoughts: significantly lower
[2]; compared to citalopram, results of four clinical studies
  treatment of the group of patients having a score greater than or equal to 2 on item 10 on the MADRS depression scale: more much more effective
[2]; general statement of the finding
  alleviation of suicidal ideation: early alleviation of suicidal ideation
